# US11737991B2, “Eutectic formulations of cyclobenzaprine hydrochloride and amitriptyline hydrochloride” (TONIX PHARMA HOLDINGS LIMITED, priority 2013, dated 2023)
# “Also recorded” adds a separate entry of the source. Where a name gives a salt, the structure may show the parent alone.
# Experiments:
# Type in all cases: physicochemical
# [1] = Dissolution test, USP paddle, pyrophosphate buffer pH 4.5; details: pH 4.5, free base still present and does not go into solution
# Description: To test the dissolution properties of the 6 mannitol eutectic, dissolution tests were carried out with a Copley DIS 6000 instrument under the following conditions: Apparatus: USP Paddle RPM: 50 Medium: Pyrophosphate buffer 0.5% pH=4.5±0.05 Additive: Methocel 0.3% Vessel volume: 300 mL Temperature: 37±0.5° C. Sampling time: 1, 2, 5, 10, 20, 30, and 60 min, then each hour until 6 hours. The sampling solutions were diluted 1 to 50 mL and then 1 to 50 mL with medium and submitted to UV analysis with UV ([…]) under the following conditions: λ max: 224 nm Cuvette: […] Blank: medium
# [2] = DSC, FT-IR/ATR and XRPD compatibility of excipients with Cyclobenzaprine HCl, mixed (A) and milled (B) 1:1 mixtures (Example 2); details: for Type of interaction between excipient and API (summary): 1:1 mixtures, mixed and milled
# Description: As described above, thermal analytical techniques were further used to assess the compatibility of a drug product (tablet) containing Cyclobenzaprine HCl (API). The compatibility assessment was carried out between the API and additional excipients in a 1:1 ratio. The 1:1 APT-excipient mixtures were formed in two different ways: first, by mixing only, and second, by strong milling in an agate mortar. The thermal behavior recorded in the two different mixtures were compared with those of the single components. On the basis of thermal events recorded for each component and for the mixtures, the analyses were carried out by investigating the meanings of the peaks recorded by differential scanning calorimetry (DSC) in mixtures between the API and the excipients. Furthermore, in order to define the nature of the interaction, the Fourier Transform Infra Red Spectroscopy with Total Attenuated Reflectance (FT-IR/ATR) and X-ray powder diffraction (XRPD) of some samples (API, excipient, and mixed and milled mixtures) was carried out and compared.
# Aliquots of API and each excipient were weighed in a ratio of 1:1 and ground in an agate mortar. Then, the homogeneous mixtures were analyzed. These sample mixtures were labeled “B”, while the mechanical-only mixtures were labeled “A.”
# The DSC heating curves were obtained by TA 821 DSC Mettler instrument under the following conditions:
# (§1) Ambient: Nitrogen 30 mL/min
# (§2) Sample holder: normal open aluminum pan
# (§3) Temperature range: from 25° C. to 250° C.
# (§4) Instrument calibration: Indium sample purity 99.999%
# The FT-IR spectra were collected with a Perkin Elmer spectrum Two instrument with air as background and 4 cm-1 resolution.
# X-ray powder diffraction (XRPD) tests were performed with the ULTIMA IV instrument (Rigaku), laying the sample on a static sample holder. The X-ray focusing slit has a variable width, interlocked with the q value. The X-ray tube has a Copper target, with a current intensity of 40 mA and a voltage of 40 kV. Radiation was generated by the Cockcroft-Walton method, and was constituted by Kα1 (1.540562 Å) and Kα2 (1.544398 Å). The analytical conditions were:
# Fixed Time; sampling width 0.02 deg, scanning rate 1.3 s/step, 2 q range 3.35 deg and sample holder; amorphous glass equiangular 9200/2G, 0.2 mm deep. The sample was pressed with a glass plate.
# [3] = XRPD of binary Cyclobenzaprine HCl-mannitol mixtures (Example 3); details: binary mixtures 30-90% API, no thermal treatment
# Description: In order to confirm the eutectic formation and to characterize its physical properties, several binary mixtures at different ratios of API-excipient were prepared and analyzed by DSC and by X-ray powder diffraction (XRPD). The mixtures were obtained by gently milling in agate mortar of micronized Cyclobenzaprine HCl and mannitol, in order to obtain homogeneous distribution of the particles. For each DSC heating curve, the onset temperature and the enthalpy were evaluated both for the eutectic contribute and for the excess of component. The recorded values were plotted and a phase diagram between the two components was obtained with a characteristic profile of phase diagrams of eutectic mixtures. Mixtures also were investigated by XRPD and compared with the patterns of pure components. […] Aliquots of Cyclobenzaprine HCl API and Mannitol were weighed in the ratios described below and ground in an agate mortar, and the homogeneous mixtures subsequently analyzed. X-ray powder diffraction (XRPD) tests were performed with a ULTIMA IV (Rigaku) instrument, laying the sample on a static sample holder. […] The radiation generated by the Cockcroft-Walton method is constituted by Kα1 (1.540562 Å) and Kα2 (1.544398 Å). The analytical conditions were as follows: Fixed Time: Sampling width, 0.02 deg; Scanning rate, 1.0 s/step […] Sample holder: amorphous glass—equiangular 9200/2G, 0.2 mm deep. […]
# [4] = DSC compatibility of excipients with Cyclobenzaprine HCl (Example 1); details: for Excipient reactions with API, Mixture 1:1: 1:1 API:excipient, ground in agate mortar
# Description: Thermal analytical techniques were used to assess the compatibility of a drug product (tablet) containing Cyclobenzaprine HCl (API). The compatibility assessment was carried out between the API and a number of possible excipients in a 1:1 ratio. Based on the thermal events recorded for each component and for the mixtures, the analyses were carried out by investigating the peaks recorded by differential scanning calorimetry (DSC) in mixture between API and the excipients. Differences in thermal profiles between the single compound and the related mixture obtained after milling the products in an agate mortar were evaluated. Stability and compatibility also were also assessed on the final drug product after stress conditions at 40° C. and 50° C. for one month.
# A “formulation ratio” mixture was made with the following composition: 2.40 mg Cyclobenzaprine HCl, 31.55 mg Mannitol and Maize starch, 2.00 Crospovidone, 0.50 mg colloidal silica, 0.050 mg Sodium Stearyl Fumarate, and 1.05 Potassium hydrogen phosphate.
# Aliquots of API and each excipient were weighed in a ratio of 1:1 (unless specified otherwise) and ground in an agate mortar. The homogeneous mixtures then were analyzed.
# The DSC heating curves were obtained with a TA 821 DSC Mettler instrument under the following conditions:
# as §1, §2, §3, §4
# [5] = DSC compatibility of excipients with Amitriptyline HCl (Example 4); details: Amitriptyline HCl:excipient 1:1, milled in agate mortar
# Description: Thermal analytical techniques were used to assess the compatibility of the drug product Amitriptyline HCl. The compatibility assessment was carried out between the API and the excipients in a 1:1 ratio. On the basis of thermal events recorded for each component and for the mixtures, the analyses were carried out by investigating the peaks recorded by DSC in mixtures between API and the excipients. Differences in thermal profiles between the single compound and the related mixtures were obtained after milling the products in an agate mortar.
# [6] = listed as Potassium phosphate bibasic
# [7] = listed as Sodium Stearyl fumarate, fumarate
molecule,measurement,setting,value
"CN(C)CCC=C1c2ccccc2C=Cc2ccccc21 [Cyclobenzaprine HCl, 3-(5H-dibenzo[a,d]cyclohepten-5-ylidene)-N,N-dimethyl-1-propanamine]",Cyclobenzaprine dissolution,[1],< 100%
OC[C@@H](O)[C@@H](O)[C@H](O)[C@H](O)CO [Mannitol],Type of interaction between excipient and API (summary),[2],formation of a eutectic
same,Interaction between API and mannitol by XRPD,[3],"no adduct formation, only a physical eutectic formation; also recorded: no adduct interaction occurred"
"O=P([O-])([O-])O.[K+].[K+] [Potassium phosphate dibasic, dipotassium hydrogen phosphate]","Excipient reactions with API, Mixture 1:1",[4],Acid - base interaction
same,"Excipient reactions with API, Mixture 1:1",[4]; [6],chemical interaction (acid-base); also recorded: chemical (acid-base) interaction
same,"Excipient reactions with API, Mixture in formulation ratio",[4],Low chemical
same,"Excipient reactions with API, Mixture in formulation ratio",[4]; listed as K2HPO4,small interaction
same,"Excipient reactions with API, Mixture in formulation ratio",[4]; [6],chemical (acid-base) interaction
CCCCCCCCCCCCCCCCCCOC(=O)/C=C/C(=O)[O-].[Na+] [Sodium stearyl fumarate],"Excipient reactions with API, Mixture 1:1",[4]; fumarate,Physical interaction
same,"Excipient reactions with API, Mixture 1:1",[4]; [7],small physical interaction
same,"Excipient reactions with API, Mixture in formulation ratio",[4]; fumarate,No interaction
same,"Excipient reactions with API, Mixture in formulation ratio",[4]; [7],this incompatibility disappears
OC[C@@H](O)[C@@H](O)[C@H](O)[C@@H](O)CO [Sorbitol],Type of interaction between excipient and API (summary),[2],physical interaction
"O=C([O-])CC(O)(CC(=O)[O-])C(=O)[O-].[Na+].[Na+].[Na+] [Tri Sodium Citrate anhydrous, Trisodium citrate anhydrous]",Nature of interaction by FT-IR/ATR,"[2]; 1:1 mixture, room temperature, no thermal treatment",no chemical acid-base reaction had occurred
same,Type of interaction between excipient and API (summary),[2],only physical
Sodium Phosphate dodecahydrate,"Interactions between API and excipients, Mixture in formulation (1:1 ratio)",[5],physical interaction
